Test results: paper PMC7503767, “Alkoxyamines Designed as Potential Drugs against Plasmodium and Schistosoma Parasites” (Molecules, 2020)
Read-outs that look alike come from different tables or passages of the source.

Tests used:
[1] = tested on: P. falciparum chloroquine-resistant strain FcB1-Columbia; assay: Antiplasmodial screen at 10 µM and chemosensitivity assay (SYBR Green I), FcB1-Columbia; assay type: cell-based, Plasmodium falciparum; conditions: FcB1-Columbia strain, read-out: IC50 on P. falciparum
Adult S. mansoni = assay: In vitro antischistosomal activity on adult worms; assay type: cell-based, Schistosoma mansoni; conditions: for Mean (±SD) survival time – Adult S. mansoni / Time for the death of 100% worms: 100 µg/mL; for Mean (±SD) survival time – Adult S. mansoni: observation up to 8 h (Table S1)
Source text: The NMRI strain of Schistosoma mansoni was used for the experimentations. The parasite was maintained on an albino variety of Biomphalaria glabrata from Brazil (intermediate host) and in Golden Hamsters, Mesocricetus auratus (Janvier Labs, Le Genest-Saint-Isle, France). Detailed methods, for mollusk and hamster infections and for parasite recovery, were previously described.
Adult worms were recovered between 42 and 47 days after infection by hepatic perfusion technique. Twenty to fifty adult worms were disposed in 12-well Falcon® plate containing 2 mL of RPMI 1640 (supplemented with L-glutamine and Hepes 25 mM) and stored in an incubator chamber (37 °C; 5% CO2). Drug preparation started with dissolution of the drug in DMSO to give a 100 mg/mL stock solution. The dilution was complemented with Tween 80 and RPMI in order to obtain the following final ratio dilution: RPMI 1640/Tween 80/DMSO, 1000/0.95/3.8, v/v/v. The drug solution was added to Falcon plates that contained adult worms. The S. mansoni cultures were then incubated with each drug at a final concentration of 100 µg/mL. Positive control was carried out with a solution of praziquantel (Merck KGaA, Darmstadt, Germany) at a concentration of 100 µg/mL. Negative control was carried out with the same RPMI 1640/Tween 80/DMSO solution, but without any drug. Each test was performed in duplicate. Every hour, moving worms were counted in order to define the percentage of survivors. Parasites showing no body contractions during a 30 s observation were considered as dead. Observations were extended to 8 h. Mean survival times (± standard deviation) were calculated for each drug using Kaplan–Meier survival analyses.

[2] = adult S. mansoni, observation up to 8 h

Row | SMILES | IC50 [1] [µM] | Mean (±SD) survival time – Adult S. mansoni (Adult S. mansoni) [h] | Time for the death of 100% worms (Adult S. mansoni; [2]) [h] | S. mansoni Mean Survival Time (Adult S. mansoni; adult S. mansoni, single dose 100 µg/mL, observation up to 8 h) [h] | IC50 ([1]; listed as (RS/SR)-1B) [µM]
1 | CCOP(=O)(OCC)C(N(OC(C)c1ccc(C(=O)OC)cc1)C(C)(C)C)C(C)(C)C (stereo not shown) [(RS/SR)-1x] | > 10 | 2.4 ± 0.3 | 4 | – | –
2 | CCOP(=O)(OCC)C(N(OC(C)c1ncc[nH]1)C(C)(C)C)C(C)(C)C (stereo not shown) [(RS/SR)-1k] | > 10 | > 8 | > 8 | – | –
3 | CCOP(=O)(OCC)C(N(OC(C)c1ccc(C(=O)OC)cc1)C(C)(C)C)C(C)(C)C (stereo not shown) [(RR/SS)-1x] | > 10 | > 8 | > 8 | – | –
4 | CCOP(=O)(OCC)C(N(OC(C)c1ccccc1)C(C)(C)CO)C(C)(C)C (stereo not shown) [(RS/SR)-2z] | > 10 | > 8 | > 8 | – | –
5 | CCOP(=O)(OCC)C(N(OC(C)c1ccc(N)cc1)C(C)(C)C)C(C)(C)C (stereo not shown) [(RR/SS)-1w] | > 10 | 2.1 ± 0.1 | 3 | – | –
6 | CCOP(=O)(OCC)C(N(OC(CNC(=O)C(F)(F)F)c1ccccc1)C(C)(C)C)C(C)(C)C (stereo not shown) [(RR/SS)-1E] | > 10 | 5.0 ± 0.5 | 6 | – | –
7 | CCOP(=O)(OCC)[C@@H](N(O[C@H](COC(C)=O)c1ccccn1)C(C)(C)C)C(C)(C)C (relative stereo) [(RS/SR)-1j] | > 10 | > 8 | > 8 | – | –
8 | CCOP(=O)(OCC)C(N(OC(C)c1ccc([N+](=O)[O-])cc1)C(C)(C)C)C(C)(C)C (stereo not shown) [(RS/SR)-1v] | > 10 | > 8 | > 8 | – | –
9 | CCOP(=O)(OCC)C(N(OC(CN)c1ccccn1)C(C)(C)C)C(C)(C)C (stereo not shown) [(RR/SS)-1g] | > 10 | 1.9 ± 0.1 | 2 | – | –
10 | CCOP(=O)(OCC)C(N(OC(C)c1c[nH]cn1)C(C)(C)C)C(C)(C)C (stereo not shown) [(RS/SR)-1p] | 20.5 | 1.4 ± 0.3 | 3 | – | –
11 | CCOP(=O)(OCC)C(N(OC(CNC(=O)C(F)(F)F)c1ccccn1)C(C)(C)C)C(C)(C)C (stereo not shown) [(RS/SR)-1h] | > 10 | > 8 | > 8 | – | –
12 | CCOP(=O)(OCC)C(N(OC(CO)c1ccccc1)C(C)(C)C)C(C)(C)C (stereo not shown) [(RS/SR)-1C] | > 10 | 1.4 ± 0.2 | 2 | – | –
13 | CCOP(=O)(OCC)C(N(OC(C)c1cc[n+]([O-])cc1)C(C)(C)C)C(C)(C)C (stereo not shown) [(RR/SS)-1d] | > 10 | > 8 | > 8 | – | –
14 | CCOP(=O)(OCC)C(N(OC(CO)c1ccccn1)C(C)(C)C)C(C)(C)C (stereo not shown) [(RS/SR)-1i] | > 10 | > 8 | > 8 | – | –
15 | CCOP(=O)(OCC)C(N(OC(C)c1ncc[nH]1)C(C)(C)C)C(C)(C)C (stereo not shown) [(RR/SS)-1k] | > 10 | 1.0 ± 0.05 | 1 | 1.0 ± 0.05 | –
16 | CCOP(=O)(OCC)C(N(OC(CN)c1cc[n+]([O-])cc1)C(C)(C)C)C(C)(C)C (stereo not shown) [(RS/SR)-1e] | > 10 | > 8 | > 8 | – | –
17 | CCOP(=O)(OCC)C(N(OC(C)n1ccnc1)C(C)(C)C)C(C)(C)C (stereo not shown) [(RS/SR)-1o] | 25 | 1.1 ± 0.1 | 2 | – | –
18 | CCOP(=O)(OCC)C(N(OC(CN)c1ccccn1)C(C)(C)C)C(C)(C)C (stereo not shown) [(RS/SR)-1g] | > 10 | 2.6 ± 0.3 | 4 | – | –
19 | CCOP(=O)(OCC)C(N(OC(C)c1cccnc1)C(C)(C)C)C(C)(C)C (stereo not shown) [(RS/SR)-1b] | – | – | – | – | > 10
20 | CCOP(=O)(OCC)[C@@H](N(O[C@@H](COC(C)=O)c1ccccn1)C(C)(C)C)C(C)(C)C (relative stereo) [(RR/SS)-1j] | > 10 | > 8 | > 8 | – | –
21 | CCOP(=O)(OCC)C(N(OC(C)c1ccc([N+](=O)[O-])cc1)C(C)(C)C)C(C)(C)C (stereo not shown) [(RR/SS)-1v] | > 10 | 3.4 ± 0.2 | 4 | – | –
22 | CCOP(=O)(OCC)C(N(OC(COC)c1ccccc1)C(C)(C)C)C(C)(C)C (stereo not shown) [(RS/SR)-1D] | > 10 | 3.8 ± 0.5 | 6 | – | –
23 | CCOP(=O)(OCC)C(N(OC(C)c1ccccn1)C(C)(C)CO)C(C)(C)C (stereo not shown) [(RS/SR)-2c] | > 10 | – | – | – | –
24 | CCOP(=O)(OCC)C(N(OC(C)n1ccnc1)C(C)(C)C)C(C)(C)C (stereo not shown) [(RR/SS)-1o] | 25 | 2.3 ± 0.2 | 3 | – | –
25 | CCOP(=O)(OCC)C(N(OC(C)c1cccnc1)C(C)(C)C)C(C)(C)C (stereo not shown) [(RR/SS)-1b] | 22.5 | – | – | – | –
26 | CCOP(=O)(OCC)C(N(OC(C)c1ccc(N)cc1)C(C)(C)C)C(C)(C)C (stereo not shown) [(RS/SR)-1w] | > 10 | > 8 | > 8 | – | –
27 | CCOP(=O)(OCC)C(N(OC(C)c1ccc(C(=O)O)cc1)C(C)(C)C)C(C)(C)C (stereo not shown) [(RR/SS)-1y] | > 10 | > 8 | > 8 | – | –
